Assays:
[1] = molecular target: RAC-gamma serine/threonine-protein kinase (Homo sapiens) (UniProt Q9Y243); assay: Inhibition of AKT3 (unknown origin) assessed as residual activity at 1000 nM by KINOMEscan analysis relative to control
[2] = molecular target: T1, Cyclin-dependent kinase 11A (Homo sapiens) (UniProt Q9UQ88); assay: Inhibition of CDC2L2 (unknown origin) assessed as residual activity at 1000 nM by KINOMEscan analysis relative to control
T1 sequence (whole entry): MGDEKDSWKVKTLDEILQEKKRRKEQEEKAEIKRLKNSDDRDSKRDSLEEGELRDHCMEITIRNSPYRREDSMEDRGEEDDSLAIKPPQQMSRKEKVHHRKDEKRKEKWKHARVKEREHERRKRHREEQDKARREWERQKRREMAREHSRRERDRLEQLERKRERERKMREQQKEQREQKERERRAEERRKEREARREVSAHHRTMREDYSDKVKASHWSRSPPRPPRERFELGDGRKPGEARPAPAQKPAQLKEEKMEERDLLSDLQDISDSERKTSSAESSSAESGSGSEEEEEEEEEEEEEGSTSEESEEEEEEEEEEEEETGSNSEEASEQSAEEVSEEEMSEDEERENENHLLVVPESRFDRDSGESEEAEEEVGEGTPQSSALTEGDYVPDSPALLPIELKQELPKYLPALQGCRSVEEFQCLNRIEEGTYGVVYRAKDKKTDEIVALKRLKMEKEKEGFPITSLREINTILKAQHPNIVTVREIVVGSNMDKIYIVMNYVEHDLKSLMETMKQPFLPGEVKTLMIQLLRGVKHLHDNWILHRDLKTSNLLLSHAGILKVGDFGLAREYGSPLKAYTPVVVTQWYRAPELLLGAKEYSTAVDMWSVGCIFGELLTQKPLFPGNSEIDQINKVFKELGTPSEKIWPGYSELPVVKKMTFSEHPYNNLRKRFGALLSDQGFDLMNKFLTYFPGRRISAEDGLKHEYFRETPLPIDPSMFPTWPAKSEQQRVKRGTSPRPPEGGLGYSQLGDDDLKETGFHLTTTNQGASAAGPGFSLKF

[3] = molecular target: T2, Cyclin-dependent kinase-like 2 (Homo sapiens) (UniProt Q92772); assay: Inhibition of CDKL2 (unknown origin) assessed as residual activity at 1000 nM by KINOMEscan analysis relative to control
T2 sequence (whole entry): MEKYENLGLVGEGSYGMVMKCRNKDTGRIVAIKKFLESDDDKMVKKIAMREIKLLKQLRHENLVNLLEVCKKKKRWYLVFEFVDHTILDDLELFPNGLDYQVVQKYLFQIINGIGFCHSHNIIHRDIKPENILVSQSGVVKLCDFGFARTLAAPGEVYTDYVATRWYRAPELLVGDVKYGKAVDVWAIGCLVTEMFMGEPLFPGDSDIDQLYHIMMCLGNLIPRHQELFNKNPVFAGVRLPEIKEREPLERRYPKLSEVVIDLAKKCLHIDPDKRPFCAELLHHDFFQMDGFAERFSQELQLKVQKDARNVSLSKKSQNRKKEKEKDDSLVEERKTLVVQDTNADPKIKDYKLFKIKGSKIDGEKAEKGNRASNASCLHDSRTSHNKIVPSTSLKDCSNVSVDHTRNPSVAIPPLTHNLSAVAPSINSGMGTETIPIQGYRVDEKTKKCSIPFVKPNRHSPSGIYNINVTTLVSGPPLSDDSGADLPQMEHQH

[4] = molecular target: T3, Ephrin type-B receptor 6 (Homo sapiens) (UniProt O15197); assay: Inhibition of EPHB6 (unknown origin) assessed as residual activity at 1000 nM by KINOMEscan analysis relative to control
T3 sequence (whole entry): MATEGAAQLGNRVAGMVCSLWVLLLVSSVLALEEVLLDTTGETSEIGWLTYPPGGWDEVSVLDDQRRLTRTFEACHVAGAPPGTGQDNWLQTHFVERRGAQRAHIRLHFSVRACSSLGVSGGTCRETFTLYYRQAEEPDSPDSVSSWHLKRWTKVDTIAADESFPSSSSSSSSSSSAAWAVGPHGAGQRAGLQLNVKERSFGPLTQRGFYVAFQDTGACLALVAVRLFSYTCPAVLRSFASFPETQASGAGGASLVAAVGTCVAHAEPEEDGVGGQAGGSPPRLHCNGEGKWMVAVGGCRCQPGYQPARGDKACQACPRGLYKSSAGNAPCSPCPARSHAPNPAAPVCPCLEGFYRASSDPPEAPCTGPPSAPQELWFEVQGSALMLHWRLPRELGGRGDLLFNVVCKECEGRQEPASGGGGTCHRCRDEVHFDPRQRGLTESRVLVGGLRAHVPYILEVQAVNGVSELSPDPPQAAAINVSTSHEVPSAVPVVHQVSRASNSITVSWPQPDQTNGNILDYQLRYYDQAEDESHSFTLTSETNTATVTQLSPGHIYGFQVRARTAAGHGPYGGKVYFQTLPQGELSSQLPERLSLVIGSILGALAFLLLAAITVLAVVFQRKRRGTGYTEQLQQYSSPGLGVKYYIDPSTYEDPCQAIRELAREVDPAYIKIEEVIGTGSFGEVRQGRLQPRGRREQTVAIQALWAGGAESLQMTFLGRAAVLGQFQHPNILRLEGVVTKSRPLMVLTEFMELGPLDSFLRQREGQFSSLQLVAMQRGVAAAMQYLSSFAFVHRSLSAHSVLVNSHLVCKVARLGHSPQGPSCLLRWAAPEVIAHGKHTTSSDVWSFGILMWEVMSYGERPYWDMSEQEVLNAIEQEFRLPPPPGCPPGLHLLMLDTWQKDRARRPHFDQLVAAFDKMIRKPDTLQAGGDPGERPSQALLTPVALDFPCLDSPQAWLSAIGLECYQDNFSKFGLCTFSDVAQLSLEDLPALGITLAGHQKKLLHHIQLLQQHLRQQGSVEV

[5] = molecular target: Dual specificity mitogen-activated protein kinase kinase 1 (Homo sapiens) (UniProt Q02750); assay: Inhibition of MEK1 (unknown origin) assessed as residual activity at 1000 nM by KINOMEscan analysis relative to control
[6] = molecular target: Serine/threonine-protein kinase 24 (Homo sapiens) (UniProt Q9Y6E0); assay: Inhibition of MST3 (unknown origin) assessed as residual activity at 1000 nM by KINOMEscan analysis relative to control
[7] = molecular target: Serine/threonine-protein kinase PAK 3 (Homo sapiens) (UniProt O75914); assay: Inhibition of PAK3 (unknown origin) assessed as residual activity at 1000 nM by KINOMEscan analysis relative to control
[8] = molecular target: Serine/threonine-protein kinase PLK2 (Homo sapiens) (UniProt Q9NYY3); assay: Inhibition of PLK2 (unknown origin) assessed as residual activity at 1000 nM by KINOMEscan analysis relative to control
Sequence of Serine/threonine-protein kinase PLK2 (Homo sapiens) (Q9NYY3 whole entry, looked up): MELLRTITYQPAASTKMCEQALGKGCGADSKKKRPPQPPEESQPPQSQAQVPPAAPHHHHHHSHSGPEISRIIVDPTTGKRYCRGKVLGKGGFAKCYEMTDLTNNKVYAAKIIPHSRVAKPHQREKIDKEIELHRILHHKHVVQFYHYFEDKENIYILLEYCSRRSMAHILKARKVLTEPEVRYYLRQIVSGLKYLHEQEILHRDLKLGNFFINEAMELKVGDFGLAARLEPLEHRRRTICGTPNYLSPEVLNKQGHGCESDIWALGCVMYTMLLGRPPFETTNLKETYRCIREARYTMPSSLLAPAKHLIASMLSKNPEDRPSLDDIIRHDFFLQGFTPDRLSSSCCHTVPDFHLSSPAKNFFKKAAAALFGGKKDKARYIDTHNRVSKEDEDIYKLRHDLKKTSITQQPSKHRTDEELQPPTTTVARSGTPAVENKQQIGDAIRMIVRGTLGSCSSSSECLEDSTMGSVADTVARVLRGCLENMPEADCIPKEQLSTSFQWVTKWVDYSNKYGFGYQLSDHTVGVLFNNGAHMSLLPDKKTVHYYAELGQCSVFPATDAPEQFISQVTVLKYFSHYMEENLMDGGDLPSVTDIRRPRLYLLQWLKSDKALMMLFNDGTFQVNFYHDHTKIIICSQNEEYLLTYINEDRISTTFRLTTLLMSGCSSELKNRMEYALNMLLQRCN

Sequence of RAC-gamma serine/threonine-protein kinase (Homo sapiens) (Q9Y243 whole entry): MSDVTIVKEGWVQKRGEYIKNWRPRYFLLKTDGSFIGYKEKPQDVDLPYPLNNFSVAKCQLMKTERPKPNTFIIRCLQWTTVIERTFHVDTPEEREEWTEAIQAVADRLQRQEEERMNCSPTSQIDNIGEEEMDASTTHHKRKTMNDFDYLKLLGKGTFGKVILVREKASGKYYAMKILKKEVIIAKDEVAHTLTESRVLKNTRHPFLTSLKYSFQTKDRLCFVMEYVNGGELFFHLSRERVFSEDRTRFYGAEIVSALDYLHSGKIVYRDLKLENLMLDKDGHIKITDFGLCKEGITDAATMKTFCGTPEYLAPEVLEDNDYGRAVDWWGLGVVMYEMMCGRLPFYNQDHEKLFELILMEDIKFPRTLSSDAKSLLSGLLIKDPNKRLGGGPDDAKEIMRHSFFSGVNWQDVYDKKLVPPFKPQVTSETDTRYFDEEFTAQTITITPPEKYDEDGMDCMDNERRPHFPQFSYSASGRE
Sequence of Serine/threonine-protein kinase PAK 3 (Homo sapiens) (O75914 whole entry, looked up): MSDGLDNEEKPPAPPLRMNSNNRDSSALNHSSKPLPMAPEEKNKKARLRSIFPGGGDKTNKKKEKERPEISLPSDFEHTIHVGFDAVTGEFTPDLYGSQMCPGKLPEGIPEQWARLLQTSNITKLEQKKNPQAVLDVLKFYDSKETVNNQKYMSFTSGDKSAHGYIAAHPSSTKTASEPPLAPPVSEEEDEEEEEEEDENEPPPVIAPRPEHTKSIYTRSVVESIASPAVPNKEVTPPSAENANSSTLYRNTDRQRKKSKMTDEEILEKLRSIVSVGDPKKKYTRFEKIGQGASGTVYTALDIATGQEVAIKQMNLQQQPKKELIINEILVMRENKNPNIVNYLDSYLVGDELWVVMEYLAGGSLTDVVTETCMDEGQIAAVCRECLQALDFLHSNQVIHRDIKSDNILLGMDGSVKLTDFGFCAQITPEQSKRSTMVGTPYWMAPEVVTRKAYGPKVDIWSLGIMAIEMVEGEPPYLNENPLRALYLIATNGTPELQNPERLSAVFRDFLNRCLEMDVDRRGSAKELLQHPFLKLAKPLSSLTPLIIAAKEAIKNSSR
Sequence of Serine/threonine-protein kinase 24 (Homo sapiens) (Q9Y6E0 whole entry, looked up): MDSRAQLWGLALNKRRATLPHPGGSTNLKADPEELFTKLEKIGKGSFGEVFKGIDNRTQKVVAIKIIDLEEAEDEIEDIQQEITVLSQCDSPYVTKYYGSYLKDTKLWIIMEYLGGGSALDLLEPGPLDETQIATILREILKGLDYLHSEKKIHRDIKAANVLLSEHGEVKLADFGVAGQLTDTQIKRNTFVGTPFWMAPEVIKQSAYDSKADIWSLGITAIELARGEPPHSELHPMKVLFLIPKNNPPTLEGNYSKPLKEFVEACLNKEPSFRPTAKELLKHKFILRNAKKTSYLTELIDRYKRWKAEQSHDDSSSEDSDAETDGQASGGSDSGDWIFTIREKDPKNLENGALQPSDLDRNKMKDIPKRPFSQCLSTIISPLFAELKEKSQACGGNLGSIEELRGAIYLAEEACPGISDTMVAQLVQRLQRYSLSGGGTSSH
Sequence of Dual specificity mitogen-activated protein kinase kinase 1 (Homo sapiens) (Q02750 whole entry): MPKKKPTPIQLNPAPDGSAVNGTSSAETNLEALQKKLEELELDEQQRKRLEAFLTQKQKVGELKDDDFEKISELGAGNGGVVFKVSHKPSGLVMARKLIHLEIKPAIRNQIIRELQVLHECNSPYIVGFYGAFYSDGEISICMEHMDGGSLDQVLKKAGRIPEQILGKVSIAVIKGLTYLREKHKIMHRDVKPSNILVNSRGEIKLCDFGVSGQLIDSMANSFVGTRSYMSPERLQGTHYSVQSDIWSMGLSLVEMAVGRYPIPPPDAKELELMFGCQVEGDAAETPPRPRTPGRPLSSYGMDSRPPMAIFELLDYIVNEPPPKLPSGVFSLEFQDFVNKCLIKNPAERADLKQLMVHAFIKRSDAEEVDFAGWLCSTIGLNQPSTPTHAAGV

SMILES | Activity [1] [%] | Activity [2] [%] | Activity [3] [%] | Activity [4] [%] | Activity [5] [%] | Activity [6] [%] | Activity [7] [%] | Activity [8] [%]
COc1cc2nc(C)nc(N[C@H](C)c3cccc(-c4cn[nH]c4)c3)c2cc1OC | 84 | 100 | 81 | 100 | 85 | 61 | 34 | 99
COc1cc2ncnc(N[C@H](C)c3cccc4ccccc34)c2cc1OC | 100 | 99 | 97 | 73 | 96 | 100 | 58 | 99
